Bridge positions count the residues as written; N and C are the ends. Square brackets hold non-standard residues; d marks the D form. Peptide text beside a SMILES is read from it. * marks the point of attachment. dOrn = NCCC[C@@H](N)C(=O)O; Octanoyl = CCCCCCCC(=O)*; Orn = NCCC[C@H](N)C(=O)O; Hexanoyl = CCCCCC(=O)*; Butyryl = CCCC(=O)*
Tests used:
E. coli ATCC 25922 = assay type: cell-based, Escherichia coli; settings: ATCC 25922, 18 h
Protocol: (§1) The minimum inhibitory concentrations (MICs) of brevicidine and laterocidine analogues were determined against a panel of clinically relevant ESKAPE pathogens; Escherichia coli (E. coli), Klebsiella pneumoniae (K. pneumoniae), Acinetobacter baumannii (A. baumannii), Pseudomonas aeruginosa (P. aeuroginosa) and Staphylococcus aureus (S. aureus), which cause the majority of nosocomial infections in the United States.[16] […] In this resistance mechanism, the polymyxin target (lipid A) is modified, reducing binding affinity. For this reason, a strain of colistin-resistant E. coli carrying the mcr-1 gene was also included in the panel. […]
(§2) IV. Antimicrobial testing
(§3) All minimum inhibitory concentrations (MICs) were determined according to Clinical and Standards Laboratory Institute (CLSI) guidelines. Blood agar plates were inoculated with glycerol stocks of E. coli ATCC 25922, K. pneumoniae ATCC 13883, A. baumannii ATCC 17961, P. aeruginosa PAO1 and S. aureus USA300. The inoculated agar plates were then incubated for 16 h at 37 °C . Individually grown colonies were subsequently used to inoculate 5 mL aliquots of TSB that were then incubated at 37 °C with shaking at 220 rpm. E. coli 25922 MCR-1 glycerol stock was used to inoculate 5 mL of TSB supplemented with kanamycin that was then incubated for 16 h at 37 °C with shaking at 220 rpm. The next day the culture was diluted 100 fold in TSB supplemented with kanamycin and incubated at 37 °C with shaking at 220 rpm. In parallel, the lipopeptide antibiotics DMSO stocks to be assessed were serially diluted with MHB in polypropylene 96-well plates (50 µL in each well). Colistin sulfate stocks were dissolved in water before being diluted with MHB. Aliquots of the inoculated TSB were incubated until an OD600 of around 0.5 was reached. The bacterial suspensions were then diluted with MHB (2 x 10^5 CFU mL-1) and added to the microplates containing the test compounds (50 µL to each well). The well-plates were sealed with an adhesive membrane and after 18 h of incubation at 37 °C with shaking at 600 rpm, the wells were visually inspected for bacterial […]
(§4) growth. MIC values reported are based on three technical replicates and defined as the lowest concentration of the compound that prevented visible growth of bacteria. […]
(§5) The values obtained from a read-out at 415 nm were corrected for background (negative control) and transformed to a percentage relative to the positive control.
(§6) VI. HPLC and HRMS analysis of peptides
(§7) Peptide Name Chemical Calcd Mass found Calcd Overall […]

E. coli ATCC 25922 MCR-1 = assay type: cell-based, Escherichia coli; settings: colistin-resistant strain carrying mcr-1; CLSI broth microdilution in MHB, 18 h at 37 °C, visual inspection; three technical replicates
Protocol: as §1
Colisitin sulfate was purchased from Activate Scientific. Kanamycin monosulfate was purchased from MP Biomedicals. E. coli ATCC 25922, S. aureus USA300 (ATCC BAA1717), K. pneumoniae ATCC 13883 and A. baumannii ATCC 17961 belong to the American Type Culture Collection (ATCC). P. aeruginosa PAO1 was kindly provided by L.H.C. Quarles Van Ufford, Utrecht University, Utrecht, The Netherlands. E. coli ATCC 25922 MCR-1 was transfected in house using the pGDP2-MCR1 plasmid kindly provided by Yong-Xin Li, The University of Hong Kong, Hong Kong, China. Sheep blood agar plates (Ref. PB5039A) were purchased from Thermo Scientific. Tryptic soy broth (Ref. 02-200-500) was purchased from Scharlab. Mueller-Hinton broth (Ref. X927.1) was purchased from Carl Roth. Polypropylene 96-wells plates (Ref. 3879) were purchased from Corning. […]
(10.0 mL). 2-Chlorotrityl (CT) chloride resin (2.00 g, 0.81 mmol g-1) and DIPEA (420 µL, 2.40 mmol) were added. […]
A gradient […]
method for C14 - C16 laterocidine was employed, starting at 100% solvent A for 2 min, ramping up to 70 % solvent B over 45 min, ramping up to 100% solvent B over 1 min, remaining there for 6 min before ramping down to 100% solvent A and remaining there for 5 min. High resolution mass spectrometry (HRMS) spectra of brevicidine peptides were recorded by Analytical Services and Environmental Projects (ASEP) at Queen’s University Belfast on a Waters LCT Premier ToF mass spectrometer using the electrospray ionisation (ESI) technique. HRMS spectra of laterocidine peptides were performed on a Thermo Scientific Dionex UltiMate 3000 HPLC system with a Phenomenex Kinetex C18 (2.6 µm, 2.1 x 150 mm) column at 35 °C and equipped with a diode array detector. The following solvent system, at a flow rate of 0.3 mL/min, was used: solvent A = 0.1% formic acid in water, solvent B = 0.1% formic acid in acetonitrile. A gradient method was employed, starting at 95 % solvent A and 5 % solvent B for 1 min, ramping up to 95 % solvent B over 9 min, ramping up to 98 % solvent B over 1 min, remaining there for 1 min before ramping back down to 95 % solvent A over 2 min and remaining there for 1 min.
The system was connected to a Bruker micrOTOF-Q II mass spectrometer (ESI ionization) calibrated internally with sodium […]
as §2
as §3, with “MHB.” for “MHB. Aliquots of the inoculated TSB were incubated until an OD600 of around 0.5 was reached. The bacterial suspensions were then diluted with MHB (2 x 10^5 CFU mL-1) and added to the microplates containing the test compounds (50 µL to each well). The well-plates were sealed with an adhesive membrane and after 18 h of incubation at 37 °C with shaking at 600 rpm, the wells were visually inspected for bacterial”

K. pneumoniae ATCC 13883 = assay type: cell-based, Klebsiella pneumoniae; settings: ATCC 13883, 18 h
Protocol: as §1, §2, §3, §4, §5, §6, §7

A. baumannii ATCC 17961 = assay type: cell-based, Acinetobacter baumannii; settings: ATCC 17961, 18 h
Protocol: as §1, §2, §3, §4, §5, §6, §7

P. aeruginosa PAO1 = assay type: cell-based, Pseudomonas aeruginosa; settings: PAO1, 18 h
Protocol: as §1, §2, §3, §4, §5, §6, §7

S. aureus USA300 = assay type: cell-based, Staphylococcus aureus; settings: USA300, 18 h
Protocol: as §1, §2, §3, §4, §5, §6, §7

Sheep red blood cells = assay type: cell-based; settings: red cells of sheep, 1 h, 64 μg mL^−1
Protocol: Having ascertained the antimicrobial activity of all synthetic peptides against a panel of ESKAPE pathogens, we next assessed their mammalian toxicity with hemolytic assays using sheep red blood cells. The % hemolysis for all peptides at 64 μg mL^−1 was determined, with the hemolysis induced by the surfactant 0.1% Triton X-100 taken as 100%. […] Hemolysis was <1% for all analogues with a C8 chain or shorter, including the strongest antibacterial peptide C8-Lat (22). Hemolytic activity increased up to C14 (>50% for C14-Lat) and then decreased at longer chain lengths, perhaps due to decreased solubility of peptides or aggregation. […]
Phosphate-Buffered Saline (PBS) containing 0.002% Tween20 (buffer) five times. Then, the red blood cells were normalized to obtain a positive control read-out between 2.5 and 3.0 at 415 nm to stay within the linear range with the maximum sensitivity. A serial dilution of the compounds (128 – 1 µg/mL, 75 µL) was prepared in a 96-well polypropylene plate. The outer border of the plate was filled with 75 µL buffer. Each plate contained a positive control (0.1% Triton-X final concentration, 75 µL) and a negative control (buffer, 75 µL) in triplicate. The normalized blood cells (75 µL) were added and the plates were incubated at 37 °C for 1 h while shaking at 500 rpm. A flat-bottom polystyrene plate with 100 µL buffer in each well was prepared. After incubation, the plates were centrifuged (800 g for 5 min at room temperature) and 25 µL of the supernatant was transferred to their respective wells in the flat-bottom plate. The values obtained from a read-out at 415 nm were corrected for background (negative control) and transformed to a percentage relative to the positive control. […]

Structure (SMILES)	Antimicrobial activity (MIC) E. coli ATCC 25922 (E. coli ATCC 25922) [µg/mL]	Antimicrobial activity (MIC) E. coli ATCC 25922 MCR-1 (E. coli ATCC 25922 MCR-1) [µg/mL]	Antimicrobial activity (MIC) K. pneumoniae ATCC 13883 (K. pneumoniae ATCC 13883) [µg/mL]	Antimicrobial activity (MIC) A. baumannii ATCC 17961 (A. baumannii ATCC 17961) [µg/mL]	Antimicrobial activity (MIC) P. aeruginosa PAO1 (P. aeruginosa PAO1) [µg/mL]	Antimicrobial activity (MIC) S. aureus USA300 (S. aureus USA300) [µg/mL]	% Hemolytic activity, sheep red blood cells (Sheep red blood cells) [%]
CC[C@H](C)[C@@H]1NC(=O)[C@@H](NC(=O)[C@H](Cc2c[nH]c3ccccc23)NC(=O)[C@@H](CCCN)NC(=O)CNC(=O)[C@H](CCCN)NC(=O)[C@@H](CCCN)NC(=O)[C@@H](Cc2c[nH]c3ccccc23)NC(=O)[C@@H](Cc2ccc(O)cc2)NC(=O)[C@H](N)CC(N)=O)[C@@H](C)OC(=O)[C@H](CO)NC(=O)CNC1=O [Compound 9]	>32	>32	>32	>32	16	>32	0.2
CC[C@H](C)[C@@H]1NC(=O)[C@@H](NC(=O)[C@H](Cc2c[nH]c3ccccc23)NC(=O)[C@@H](CCCN)NC(=O)CNC(=O)[C@H](CCCN)NC(=O)[C@@H](CCCN)NC(=O)[C@@H](Cc2c[nH]c3ccccc23)NC(=O)[C@@H](Cc2ccc(O)cc2)NC(=O)[C@@H](CC(N)=O)NC(C)=O)[C@@H](C)OC(=O)[C@H](CO)NC(=O)CNC1=O [Compound 10] (Ac-[dN][dY][dW][dOrn][Orn]G[dOrn]WTIGS; ester 9-C)	>32	>32	>32	>32	8	>32	0.2
CCCC(=O)N[C@H](CC(N)=O)C(=O)N[C@H](Cc1ccc(O)cc1)C(=O)N[C@H](Cc1c[nH]c2ccccc12)C(=O)N[C@H](CCCN)C(=O)N[C@@H](CCCN)C(=O)NCC(=O)N[C@H](CCCN)C(=O)N[C@@H](Cc1c[nH]c2ccccc12)C(=O)N[C@@H]1C(=O)N[C@@H]([C@@H](C)CC)C(=O)NCC(=O)N[C@@H](CO)C(=O)O[C@@H]1C [Compound 11] (Butyryl-[dN][dY][dW][dOrn][Orn]G[dOrn]WTIGS; ester 9-C)	32	32	8	32	16	>32	0.1
CCCCCC(=O)N[C@H](CC(N)=O)C(=O)N[C@H](Cc1ccc(O)cc1)C(=O)N[C@H](Cc1c[nH]c2ccccc12)C(=O)N[C@H](CCCN)C(=O)N[C@@H](CCCN)C(=O)NCC(=O)N[C@H](CCCN)C(=O)N[C@@H](Cc1c[nH]c2ccccc12)C(=O)N[C@@H]1C(=O)N[C@@H]([C@@H](C)CC)C(=O)NCC(=O)N[C@@H](CO)C(=O)O[C@@H]1C [Compound 12] (Hexanoyl-[dN][dY][dW][dOrn][Orn]G[dOrn]WTIGS; ester 9-C)	8	8	4	16	>32	>32	0.3
CCCCCCCC(=O)N[C@H](CC(N)=O)C(=O)N[C@H](Cc1ccc(O)cc1)C(=O)N[C@H](Cc1c[nH]c2ccccc12)C(=O)N[C@H](CCCN)C(=O)N[C@@H](CCCN)C(=O)NCC(=O)N[C@H](CCCN)C(=O)N[C@@H](Cc1c[nH]c2ccccc12)C(=O)N[C@@H]1C(=O)N[C@@H]([C@@H](C)CC)C(=O)NCC(=O)N[C@@H](CO)C(=O)O[C@@H]1C [Compound 13] (Octanoyl-[dN][dY][dW][dOrn][Orn]G[dOrn]WTIGS; ester 9-C)	16	16	16	16	8	>32	0.4

From publication PMC9749936, “Synthesis and structure–activity relationship studies of N-terminal analogues of the lipopeptide antibiotics brevicidine and laterocidine” (RSC Medicinal Chemistry, 2022)
